# Tests used:
# [1] = target: T1, Cathepsin K (Homo sapiens) (UniProt P43235); assay: Inhibition of human cathepsin K incubated for 15 mins using Z-Leu-Arg-AMC substrate by spectrofluorometry
# T1 sequence (whole entry): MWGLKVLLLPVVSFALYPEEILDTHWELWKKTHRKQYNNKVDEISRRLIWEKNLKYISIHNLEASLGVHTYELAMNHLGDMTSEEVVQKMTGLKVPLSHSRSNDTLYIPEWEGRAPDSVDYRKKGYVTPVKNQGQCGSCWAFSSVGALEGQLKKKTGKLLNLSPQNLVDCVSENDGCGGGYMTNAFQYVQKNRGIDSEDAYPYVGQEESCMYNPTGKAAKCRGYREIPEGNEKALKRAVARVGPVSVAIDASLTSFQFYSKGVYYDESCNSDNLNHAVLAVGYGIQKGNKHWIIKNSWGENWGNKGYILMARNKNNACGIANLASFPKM
# [2] = target: T2, Cathepsin F (Homo sapiens) (UniProt Q9UBX1); assay: Inhibition of human cathepsin F incubated for 15 mins using Z-Phe-Arg-AMC substrate by spectrofluorometry
# T2 sequence (whole entry): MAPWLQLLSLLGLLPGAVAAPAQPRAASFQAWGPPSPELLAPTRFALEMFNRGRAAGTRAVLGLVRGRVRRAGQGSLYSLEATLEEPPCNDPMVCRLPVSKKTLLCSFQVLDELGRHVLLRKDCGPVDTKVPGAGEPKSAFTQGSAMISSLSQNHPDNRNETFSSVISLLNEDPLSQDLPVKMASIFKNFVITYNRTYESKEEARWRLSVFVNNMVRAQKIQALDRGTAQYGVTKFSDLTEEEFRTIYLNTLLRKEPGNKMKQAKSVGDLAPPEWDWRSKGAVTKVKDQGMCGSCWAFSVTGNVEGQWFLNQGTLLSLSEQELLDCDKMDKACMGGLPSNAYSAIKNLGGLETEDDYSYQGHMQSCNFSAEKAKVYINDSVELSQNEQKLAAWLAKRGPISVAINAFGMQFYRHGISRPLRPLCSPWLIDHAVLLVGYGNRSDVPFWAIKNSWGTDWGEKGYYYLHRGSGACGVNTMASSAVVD
Structure (SMILES),IP [1] [nM],IP [2] [nM]
N#CC1(NC(=O)[C@@H]2CCCC[C@H]2c2nc(C3CC(F)(F)C3)sc2-c2ccc(N3CCS(=O)(=O)CC3)cc2)CC1,5.8,1000
N#CC1(NC(=O)[C@@H]2CCCC[C@H]2c2nc(-c3cccc(C4CCOCC4)c3)sc2-c2ccc(N3CCS(=O)(=O)CC3)cc2)CC1,1.7,3330
C[C@@H](C#N)NC(=O)[C@@H]1C[C@@H](F)CC[C@H]1c1nc(C2(C(F)(F)F)CC2)sc1-c1ccc(N2CCS(=O)(=O)CC2)cc1,2.8,3140
CC(C)(C)c1nc([C@@H]2CCCC[C@H]2C(=O)NCC#N)c(-c2ccc(N3CCS(=O)(=O)CC3)cc2)s1,0.7,851
